This is an account of results in the supplement of paper PMC12137928.

This assay has as its system HCT116. The note with it: 72 h. Summed up: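 For IC50 and maximal efficacy, four-parameter Hill fits were used. Input values were CellTiter-Glo luminescence from HCT116 cells seeded at 250 per well in 1536-well plates, normalized to vehicle (0%) and positive control (-100%). Pattern correction followed normalization.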

Molecules are shown by their SMILES. Structures can show the parent of a compound that is named as a salt.

On to `CN(C)C(=O)Oc1cc(OC(=O)N(C)C)cc(C(O)CNC(C)(C)C)c1` (stereo not drawn) [Bambuterol hydrochloride], for which the IC50 cell viability runs as follows: (ICRF193 0 nM) > 45.8 µM; (ICRF193 200 nM) > 45.8 µM.

For `NS(=O)(=O)c1cc2c(cc1Cl)N=CNS2(=O)=O` [Chlorothiazide], the IC50 cell viability reads like this: (ICRF193 0 nM) > 45.8 µM; (ICRF193 200 nM) > 45.8 µM.

For the compound `CC(C)Cc1ccc(C(C)C(=O)O)cc1` (stereo not drawn) [Ibuprofen lysine], the IC50 cell viability is, setting by setting: (ICRF193 0 nM) > 45.8 µM; (ICRF193 200 nM) > 45.8 µM.

For `COC(=O)[C@@H](N)CS` [L-Cysteine methyl ester hydrochloride], the IC50 cell viability was > 45.8 µM (ICRF193 0 nM) and > 45.8 µM (ICRF193 200 nM).

`CCCCCCC(=O)O[C@H]1CC[C@H]2[C@@H]3CC[C@H]4CC(=O)C=C(C)[C@]4(C)[C@H]3CC[C@]12C` [Methenolone enanthate]: the IC50 cell viability is > 45.8 µM (ICRF193 0 nM) and > 45.8 µM (ICRF193 200 nM).

Consider `CCN(CC)CCNC(=O)c1ccc(N)cc1` [Procainamide], for which the IC50 cell viability was > 45.8 µM (ICRF193 0 nM) and > 45.8 µM (ICRF193 200 nM).

Consider `CC(C(=O)O)c1ccc2c(c1)Cc1cccnc1O2` (stereo not drawn) [Pranoprofen], for which the IC50 cell viability (ICRF193 0 nM) was > 45.8 µM and the IC50 cell viability (ICRF193 200 nM) was > 45.8 µM.

`Nc1nc(CC(=O)Nc2ccc(CCNC[C@H](O)c3ccccc3)cc2)cs1` [Mirabegron]: the IC50 cell viability reads like this: (ICRF193 0 nM) > 45.8 µM; (ICRF193 200 nM) > 45.8 µM.

Regarding `NC(=Nc1ccccc1)Nc1ccccc1` [1,3-Diphenylguanidine], the IC50 cell viability is > 45.8 µM (ICRF193 0 nM) and > 45.8 µM (ICRF193 200 nM).

For `CCOC(=O)CN[C@@H](C(=O)N1CC[C@H]1C(=O)NCc1ccc(/C(N)=N\O)cc1)C1CCCCC1` [Ximelagatran], the IC50 cell viability is > 45.8 µM (ICRF193 0 nM) and > 45.8 µM (ICRF193 200 nM).

`C[C@@H]1C[C@H]2[C@@H]3C[C@H](F)C4=CC(=O)C=C[C@]4(C)[C@@]3(F)[C@@H](O)C[C@]2(C)[C@@]1(O)C(=O)CO` [Flumethasone]: the IC50 cell viability is > 45.8 µM (ICRF193 0 nM) and > 45.8 µM (ICRF193 200 nM).

Turning to `CNC1(C)C2CCC(C2)C1(C)C` (stereo not drawn) [Mecamylamine], the IC50 cell viability by setting is: (ICRF193 0 nM) > 45.8 µM; (ICRF193 200 nM) > 45.8 µM.

For the compound `CCn1cc(C(=O)O)c(=O)c2cc(F)c(N3CCNCC3)nc21` [Enoxacin], the IC50 cell viability runs as follows: (ICRF193 0 nM) > 45.8 µM; (ICRF193 200 nM) > 45.8 µM.

On to `CC(C)Cc1ccc(C(C)C(=O)OCc2ccccn2)cc1` (stereo not drawn) [Ibuprofen piconol], for which the IC50 cell viability (ICRF193 0 nM) was > 45.8 µM and the IC50 cell viability (ICRF193 200 nM) is > 45.8 µM.

In the case of `NC(=O)CN1CCCC1=O` [Piracetam], the IC50 cell viability is, setting by setting: (ICRF193 0 nM) > 45.8 µM; (ICRF193 200 nM) > 45.8 µM.

`COCC1=C(C(=O)O)N2C(=O)[C@@H](NC(=O)/C(=N\OC)c3csc(N)n3)[C@H]2SC1` [CEFPODOXIME]: the IC50 cell viability is > 45.8 µM (ICRF193 0 nM) and > 45.8 µM (ICRF193 200 nM).

For `C=CCCCCCCCCC(=O)O[C@H]1CC[C@H]2[C@@H]3CCC4=CC(=O)C=C[C@]4(C)[C@H]3CC[C@]12C` [Boldenone Undecylenate], the IC50 cell viability runs as follows: (ICRF193 0 nM) > 45.8 µM; (ICRF193 200 nM) > 45.8 µM.

For the compound `C[C@]12CC[C@@H]3c4ccc(OC(=O)c5ccccc5)cc4CC[C@H]3[C@@H]1CC[C@@H]2O` [ESTRADIOL BENZOATE], the IC50 cell viability was > 45.8 µM (ICRF193 0 nM) and > 45.8 µM (ICRF193 200 nM).

For `O=S(=O)(O)c1ccccc1` [Benzene sulfonic acid], the IC50 cell viability reads like this: (ICRF193 0 nM) > 45.8 µM; (ICRF193 200 nM) > 45.8 µM.

In the case of `O=C(NCCO[N+](=O)[O-])c1cccnc1` [Nicorandil], the IC50 cell viability by setting is: (ICRF193 0 nM) > 45.8 µM; (ICRF193 200 nM) > 45.8 µM.

Consider `Cc1cc(OI)c(C(C)C)cc1-c1cc(C(C)C)c(OI)cc1C` [Thymol iodide], for which the IC50 cell viability (ICRF193 0 nM) was > 45.8 µM and the IC50 cell viability (ICRF193 200 nM) is > 45.8 µM.

On to `C[N+](C)(C)CCOC(N)=O` [Carbachol], for which the IC50 cell viability reads like this: (ICRF193 0 nM) > 45.8 µM; (ICRF193 200 nM) > 45.8 µM.

Take `CN[C@@H]1CCc2[nH]c3ccc(C(N)=O)cc3c2C1` [Frovatriptan succinate]: the IC50 cell viability (ICRF193 0 nM) is > 45.8 µM and the IC50 cell viability (ICRF193 200 nM) was > 45.8 µM.

In the case of `CCN(CC)C(=O)C1(c2ccccc2)CC1CN` (stereo not drawn) [Milnacipran hydrochloride], the IC50 cell viability is > 45.8 µM (ICRF193 0 nM) and > 45.8 µM (ICRF193 200 nM).

In the case of `O=C1/C(=C2\Nc3ccccc3C2=O)Nc2ccccc21` [Indigo], the IC50 cell viability is, setting by setting: (ICRF193 0 nM) > 45.8 µM; (ICRF193 200 nM) > 45.8 µM.

`CCC(=O)NS(=O)(=O)c1ccc(-c2c(-c3ccccc3)noc2C)cc1` [Parecoxib]: the IC50 cell viability was > 45.8 µM (ICRF193 0 nM) and > 45.8 µM (ICRF193 200 nM).

Consider `CNCC(O)c1ccc(OC(=O)C(C)(C)C)c(OC(=O)C(C)(C)C)c1` (stereo not drawn) [Dipivefrin hydrochloride], for which the IC50 cell viability reads like this: (ICRF193 0 nM) > 45.8 µM; (ICRF193 200 nM) > 45.8 µM.

As to `O=C(OCc1ccccc1)c1cccnc1` [BENZYL NICOTINATE], the IC50 cell viability is, setting by setting: (ICRF193 0 nM) > 45.8 µM; (ICRF193 200 nM) > 45.8 µM.

As to `Cc1nc(-c2ccc(OCC(C)C)c(C#N)c2)sc1C(=O)O` [Febuxostat], the IC50 cell viability (ICRF193 0 nM) was > 45.8 µM and the IC50 cell viability (ICRF193 200 nM) is > 45.8 µM.
